# Measurements taken from ChEMBL document CHEMBL1201862, “PubChem BioAssay data set” (2004).
#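 Assay format: 96-well plates, 48-hour exposure. GI50 = concentration required for 50% inhibition of growth.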 Activity calls are given as the source filed them. Rule as the data show it: active = GI50 up to about 1.1 µM and inactive = higher.
# Tests used:
# Assay in all cases: NCI tumour cell line growth inhibition, 48 h
# [1] = system: HOP-92
# [2] = system: SK-MEL-5
# [3] = system: DMS-273
# [4] = system: LOX IMVI
# [5] = system: UACC-62
# [6] = system: NCI-H522
# [7] = system: A498
# [8] = system: CAKI-1
# [9] = system: OVCAR-5
# [10] = system: TK-10
# [11] = system: 786-0
# [12] = system: OVCAR-8
# [13] = system: ACHN
# [14] = system: K562
# [15] = system: SF-295
# [16] = system: RPMI-8226
# [17] = system: SNB-19
# [18] = system: U-251
# [19] = system: KM12
# [20] = system: SK-OV-3
# [21] = system: HL-60
# [22] = system: SF-539
# [23] = system: HCT-15
# [24] = system: NCI-H23
# [25] = system: SK-MEL-28
# [26] = system: DMS-114
# [27] = system: NCI-H460
# [28] = system: HCC 2998
# [29] = system: SNB-75
# [30] = system: NCI-H226
# [31] = system: HOP-62
# [32] = system: SW-620
# [33] = system: SK-MEL-2
# [34] = system: SN12C
# [35] = system: MOLT-4
# [36] = system: A549
# [37] = system: M19-MEL
# [38] = system: Malme-3M
# [39] = system: COLO 205
# [40] = system: OVCAR-3
# [41] = system: EKVX
# [42] = system: CCRF-CEM
# [43] = system: HOP-18
# [44] = system: SF-268
# [45] = system: HT-29
# [46] = system: UACC-257
# [47] = system: IGROV-1
# [48] = system: RXF 393
# [49] = system: DLD-1
# [50] = system: KM-20L2
# [51] = system: SNB-78
# [52] = system: UO-31
# [53] = system: HCT-116
# [54] = system: M14
# [55] = system: LXFL 529
# [56] = system: OVCAR-4
# [57] = system: SR
structure (smiles),measurement,setting,value
CC1OC(OC2C(OC(=O)[C@]34CCC(C)(C)CC3C3=CCC5[C@@]6(C)C[C@H](O)[C@H](OC7OC(COC8OC(CO)C(O)C(O)C8O)C(O)C(O)C7O)[C@@](C)(C(=O)O)C6CC[C@@]5(C)C3(C)CC4)OCC(O)C2O)C(O)C(O)C1OC1OCC(O)C(O)C1O (stereo partly drawn),GI50,[1],> 100 µM (inactive)
same,GI50,[2],> 100 µM (inactive)
same,GI50,[3],> 100 µM (inactive)
same,GI50,[4],> 100 µM (inactive)
same,GI50,[5],> 100 µM (inactive)
same,GI50,[6],> 100 µM (inactive)
same,GI50,[7],> 100 µM (inactive)
same,GI50,[8],> 100 µM (inactive)
same,GI50,[9],> 100 µM (inactive)
same,GI50,[10],> 100 µM (inactive)
same,GI50,[11],> 100 µM (inactive)
same,GI50,[12],> 100 µM (inactive)
same,GI50,[13],> 100 µM (inactive)
same,GI50,[14],> 100 µM (inactive)
same,GI50,[15],> 100 µM (inactive)
same,GI50,[16],> 100 µM (inactive)
same,GI50,[17],> 100 µM (inactive)
same,GI50,[18],> 100 µM (inactive)
same,GI50,[19],> 100 µM (inactive)
same,GI50,[20],> 100 µM (inactive)
same,GI50,[21],> 100 µM (inactive)
same,GI50,[22],> 100 µM (inactive)
same,GI50,[23],> 100 µM
same,GI50,[24],> 100 µM (inactive)
same,GI50,[25],> 100 µM (inactive)
same,GI50,[26],> 100 µM (inactive)
same,GI50,[27],> 100 µM (inactive)
same,GI50,[28],> 100 µM (inactive)
same,GI50,[29],> 100 µM (inactive)
same,GI50,[30],> 100 µM (inactive)
same,GI50,[31],> 100 µM (inactive)
same,GI50,[32],> 100 µM (inactive)
same,GI50,[33],> 100 µM (inactive)
same,GI50,[34],> 100 µM (inactive)
same,GI50,[35],> 100 µM (inactive)
same,GI50,[36],> 100 µM (inactive)
same,GI50,[37],> 100 µM (inactive)
same,GI50,[38],> 100 µM (inactive)
same,GI50,[39],> 100 µM (inactive)
same,GI50,[40],> 100 µM (inactive)
same,GI50,[41],> 100 µM (inactive)
same,GI50,[42],> 100 µM (inactive)
same,GI50,[43],> 100 µM (inactive)
same,GI50,[44],> 100 µM (inactive)
same,GI50,[45],> 100 µM (inactive)
same,GI50,[46],> 100 µM (inactive)
same,GI50,[47],> 100 µM (inactive)
same,GI50,[48],> 100 µM (inactive)
same,GI50,[49],> 100 µM (inactive)
same,GI50,[50],> 100 µM (inactive)
same,GI50,[51],> 100 µM (inactive)
same,GI50,[52],> 100 µM (inactive)
C=CCCCCCCCC(O)C1C[C@H](O)C(CCCCC)O1 (stereo partly drawn),GI50,[1],15.7 µM (inactive)
same,GI50,[2],18.3 µM (inactive)
same,GI50,[3],18.1 µM (inactive)
same,GI50,[4],19.6 µM (inactive)
same,GI50,[5],15 µM (inactive)
same,GI50,[6],17.1 µM (inactive)
same,GI50,[7],19.8 µM (inactive)
same,GI50,[8],17.9 µM (inactive)
same,GI50,[10],19 µM (inactive)
same,GI50,[11],17.9 µM (inactive)
same,GI50,[12],19.9 µM (inactive)
same,GI50,[13],16.9 µM (inactive)
same,GI50,[14],20.7 µM (inactive)
same,GI50,[15],17.6 µM (inactive)
same,GI50,[16],17.1 µM (inactive)
same,GI50,[18],16 µM (inactive)
same,GI50,[19],19.5 µM (inactive)
same,GI50,[20],20.4 µM (inactive)
same,GI50,[53],17.6 µM (inactive)
same,GI50,[21],17.5 µM (inactive)
same,GI50,[22],15.8 µM (inactive)
same,GI50,[23],21.5 µM
same,GI50,[24],16.9 µM (inactive)
same,GI50,[54],17.7 µM (inactive)
same,GI50,[25],17.9 µM (inactive)
same,GI50,[26],17.3 µM (inactive)
same,GI50,[27],18.9 µM (inactive)
same,GI50,[28],17.9 µM (inactive)
same,GI50,[29],15.2 µM (inactive)
same,GI50,[30],13.4 µM (inactive)
same,GI50,[55],15.5 µM (inactive)
same,GI50,[32],21.1 µM (inactive)
same,GI50,[34],19.5 µM (inactive)
same,GI50,[35],17.7 µM (inactive)
same,GI50,[36],19.4 µM (inactive)
same,GI50,[37],19.1 µM (inactive)
same,GI50,[38],17.3 µM (inactive)
same,GI50,[39],18.5 µM (inactive)
same,GI50,[40],17.5 µM (inactive)
same,GI50,[41],19.5 µM (inactive)
same,GI50,[42],19.3 µM (inactive)
same,GI50,[43],17.9 µM (inactive)
same,GI50,[45],18.6 µM (inactive)
same,GI50,[46],> 10 µM (inactive)
same,GI50,[47],20.2 µM (inactive)
same,GI50,[48],17.1 µM (inactive)
same,GI50,[49],17.3 µM (inactive)
same,GI50,[51],20 µM (inactive)
same,GI50,[52],17.8 µM (inactive)
O=C(N/N=C(/CCN1CCCC1)CC(c1ccccc1)c1c(O)c2ccccc2oc1=O)c1ccncc1 (stereo not drawn),GI50,[1],35 µM (inactive)
same,GI50,[2],> 100 µM (inactive)
same,GI50,[4],> 100 µM (inactive)
same,GI50,[5],> 100 µM (inactive)
same,GI50,[6],72.6 µM (inactive)
same,GI50,[7],> 100 µM (inactive)
same,GI50,[8],> 100 µM (inactive)
same,GI50,[9],> 100 µM (inactive)
same,GI50,[10],> 100 µM (inactive)
same,GI50,[11],> 100 µM (inactive)
same,GI50,[12],> 100 µM (inactive)
same,GI50,[13],> 100 µM (inactive)
same,GI50,[14],87.1 µM (inactive)
same,GI50,[15],> 100 µM (inactive)
same,GI50,[16],45.1 µM (inactive)
same,GI50,[17],> 100 µM (inactive)
same,GI50,[18],> 100 µM (inactive)
same,GI50,[19],> 100 µM (inactive)
same,GI50,[20],> 100 µM (inactive)
same,GI50,[53],> 100 µM (inactive)
same,GI50,[21],30 µM (inactive)
same,GI50,[22],> 100 µM (inactive)
same,GI50,[23],> 100 µM
same,GI50,[24],> 100 µM (inactive)
same,GI50,[56],> 100 µM (inactive)
same,GI50,[54],94.6 µM (inactive)
same,GI50,[27],> 100 µM (inactive)
same,GI50,[28],0.171 µM (active)
same,GI50,[29],> 100 µM (inactive)
same,GI50,[30],> 100 µM (inactive)
same,GI50,[31],> 100 µM (inactive)
same,GI50,[55],> 100 µM (inactive)
same,GI50,[32],41.2 µM (inactive)
same,GI50,[33],> 100 µM (inactive)
same,GI50,[34],> 100 µM (inactive)
same,GI50,[36],> 100 µM (inactive)
same,GI50,[37],95.1 µM (inactive)
same,GI50,[38],93.3 µM (inactive)
same,GI50,[40],> 100 µM (inactive)
same,GI50,[41],> 100 µM (inactive)
same,GI50,[42],50.8 µM (inactive)
same,GI50,[43],> 100 µM (inactive)
same,GI50,[57],15.4 µM (inactive)
same,GI50,[44],> 100 µM (inactive)
same,GI50,[45],> 100 µM (inactive)
same,GI50,[46],> 100 µM (inactive)
same,GI50,[47],> 100 µM (inactive)
same,GI50,[48],> 100 µM (inactive)
same,GI50,[49],> 100 µM (inactive)
same,GI50,[50],> 100 µM (inactive)
same,GI50,[51],> 100 µM (inactive)
same,GI50,[52],> 100 µM (inactive)
